Experimental data as given in PMC9221411, “Molecular Detection of Venous Thrombosis in Mouse Models Using SPECT/CT” (Biomolecules, 2022).

Molecular target: T1, human thrombi (Homo sapiens, UniProt P02671+P02675+P02679)
T1 construct: Human plasma was allowed to clot for 90 min at 37 °C; from tissue; host or cells: citrated plasma of healthy human volunteers, clotted with CaCl2 and tissue factor
T1 sequence (P02671 36-629 limits assumed): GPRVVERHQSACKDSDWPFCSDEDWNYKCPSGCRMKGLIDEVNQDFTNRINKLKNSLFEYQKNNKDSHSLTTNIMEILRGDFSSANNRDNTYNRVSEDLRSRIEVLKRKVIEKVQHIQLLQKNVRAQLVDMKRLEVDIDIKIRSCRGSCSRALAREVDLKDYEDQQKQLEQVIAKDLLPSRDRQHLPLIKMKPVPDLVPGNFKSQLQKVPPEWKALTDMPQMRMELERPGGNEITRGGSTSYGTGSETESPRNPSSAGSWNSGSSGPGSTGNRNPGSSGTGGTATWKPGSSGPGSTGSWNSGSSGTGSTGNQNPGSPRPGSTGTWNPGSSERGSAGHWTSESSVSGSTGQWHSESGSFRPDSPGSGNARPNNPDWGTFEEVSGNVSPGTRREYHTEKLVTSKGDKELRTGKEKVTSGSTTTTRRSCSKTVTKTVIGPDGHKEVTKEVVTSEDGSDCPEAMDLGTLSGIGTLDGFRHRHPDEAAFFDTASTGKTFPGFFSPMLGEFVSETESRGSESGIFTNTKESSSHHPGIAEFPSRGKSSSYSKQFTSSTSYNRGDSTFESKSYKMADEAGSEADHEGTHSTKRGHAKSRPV
T1 sequence (P02675 45-491 limits assumed): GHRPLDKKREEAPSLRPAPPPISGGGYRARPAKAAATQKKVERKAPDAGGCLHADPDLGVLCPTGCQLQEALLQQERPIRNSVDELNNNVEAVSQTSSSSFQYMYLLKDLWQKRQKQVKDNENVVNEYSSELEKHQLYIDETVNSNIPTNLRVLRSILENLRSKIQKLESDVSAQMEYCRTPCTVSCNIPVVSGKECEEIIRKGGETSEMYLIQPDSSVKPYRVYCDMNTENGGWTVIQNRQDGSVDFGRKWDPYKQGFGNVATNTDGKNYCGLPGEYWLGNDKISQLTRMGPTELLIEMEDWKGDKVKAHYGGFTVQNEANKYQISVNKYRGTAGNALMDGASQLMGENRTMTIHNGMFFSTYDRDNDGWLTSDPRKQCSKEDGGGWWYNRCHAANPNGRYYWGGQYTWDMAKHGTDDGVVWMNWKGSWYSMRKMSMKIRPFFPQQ
T1 sequence (P02679 27-437 isoform P02679-2 limits assumed): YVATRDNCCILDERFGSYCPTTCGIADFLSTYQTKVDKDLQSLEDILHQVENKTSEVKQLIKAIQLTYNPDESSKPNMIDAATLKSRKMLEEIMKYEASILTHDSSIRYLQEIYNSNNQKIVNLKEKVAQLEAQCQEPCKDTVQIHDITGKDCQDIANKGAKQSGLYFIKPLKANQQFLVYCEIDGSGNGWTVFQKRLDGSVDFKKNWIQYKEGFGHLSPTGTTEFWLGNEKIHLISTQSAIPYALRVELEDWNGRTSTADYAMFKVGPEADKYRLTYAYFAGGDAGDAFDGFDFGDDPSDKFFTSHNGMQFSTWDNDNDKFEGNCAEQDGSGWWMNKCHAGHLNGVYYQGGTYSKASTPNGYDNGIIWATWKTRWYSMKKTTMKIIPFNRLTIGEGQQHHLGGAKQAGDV
Assay: In vitro probe depletion: incorporation of rhodamine-labelled probes into human plasma thrombi (OD570 of supernatant)
Assay type: binding
Settings: mean
Procedure: Human blood was collected from healthy volunteers by venipuncture using a vacutainer tube containing trisodium citrate after signing informed consent (Helsinki declaration). […] At the indicated time points, the OD570 of the supernatant was measured. Mouse blood was collected through a tail vein puncture, and plasma from 6 mice was pooled. Human and mouse thrombi were allowed to form as described above and subsequently incubated with 100 μ L or 16 ng/ μ L ^111 In-A16 or ^111 In-control-A16. After 30, 60 and 180 min, the thrombi were washed twice with 1 mL PBS, and the amount of tracer uptake in the thrombi was calculated using gamma counting (Wallac Wizard, Turku, Finland). Data were expressed as the percentage of tracer uptake in the thrombi to the total amount of tracer added.
LisB-A16 was compared with bi- α 2-AP-CA. Human plasma was allowed to clot for 90 min at 37 °C, after which a 3 μ M probe was added. The decrease in probe left in the solution was measured by colourimetry and represented probe incorporation into the human thrombi (Figure 2A). […]
Figure 2 In vitro probe depletion. […] OD (570 nm) in solution was measured after 1, 2, 3 and 4 h as a measure of probe incorporation in thrombi. […]
OD (570 nm) in soluti on was measured after 1, 2, 3 and 4 hours , as a measure of probe […]

- absorption at 570 nm of probe left in solution (probe incorporation into human thrombi) (3 μM probe added to human plasma thrombi formed 90 min at 37 °C (14 mM CaCl2, 0.6 nM TF), OD570 of supernatant measured after 1, 2, 3 and 4 h, n = 4, lower = more incorporation): 53%
- remaining probe in solution (15 μM probe added to human plasma thrombi formed 90 min at 37 °C, OD570 of supernatant after 1, 2, 3 and 4 h, n = 4 (Figure S2)): 61%
Substance: Ac-GNQEQVSPLTLLK1-K(LisB)K-NH 2 [LisB-A16, red fluorescent A16 probe conjugated with Lissamine rhodamine-B]
